Laboratory results taken from patent US20250163057A1, “DCN-1 MODULATING COMPOUNDS AND METHODS OF USE THEREOF” (Cellarity, Inc., priority 2023, published 2025).

These compounds were tested against DCN1 protein (Homo sapiens (Human), UniProt Q96GG9) (assay: Intact Protein MS Analysis with the RapidFire-TOF System (covalent adduct formation)). Conditions: MS Emax; 400 nM DCN1, 3 hours at room temperature.
Type: binding
Description: An MS assay was performed to evaluate the ability of the compounds to covalently modify DCN-1.
DCN1 protein, His-TEV-DCN1, were expressed in E. Coli. The His-tagged protein was first purified with an Ni-NTA column. The His-tag was cleaved using His-tag TEV protease and the His-tags were removed using a second Ni-NTA column. Protein purity was verified with SDS-PAGE and intact MS. DCN1 was dissolved in a buffer containing 25 mM Tris-HCl, 200 mM NaCl, and 1 mM DTT at 400 nM. 11 concentrations of compounds were added to the DCN1 solution and incubated at room temperature for 3 hours, unless otherwise specified. The reaction plates were quenched by adding 0.2% formic acid. […] The cartridge was re-equilibrated with loading buffer for 1 second before collection of the next sample. The Q-TOF was operated in TOF-only positive ionization mode set to the following parameters: Gas Temp=350 C, Drying Gas=7 l/min, Nebulizer=50 psi, Sheath Gas Temp=400 C, Sheath Gas Flow=12 l/min, Vcap=4000 V, Nozzle Voltage=1000 V, Fragmentor=125 V, Skimmer=65 V and Oct 1 RF Vpp=750V. Raw MS data files were deconvoluted and analyzed using the Agilent MassHunter Bioconfirm software package to identify both parent protein and expected compound adduct mass signatures.

Chain of DCN1 protein (Q96GG9 whole entry): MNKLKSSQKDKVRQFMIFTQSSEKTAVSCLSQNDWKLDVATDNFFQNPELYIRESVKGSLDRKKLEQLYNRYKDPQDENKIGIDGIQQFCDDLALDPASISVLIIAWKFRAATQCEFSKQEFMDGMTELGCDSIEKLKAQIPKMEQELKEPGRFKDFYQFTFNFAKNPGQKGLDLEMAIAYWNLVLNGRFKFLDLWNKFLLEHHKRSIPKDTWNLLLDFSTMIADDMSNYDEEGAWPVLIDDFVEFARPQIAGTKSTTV

| SMILES | % Adduct Formation |
| --- | --- |
| C=C(F)C(=O)NCc1nn(-c2ccccc2)c2c1[C@H](c1ccc(F)cc1)[C@H](NC(=O)c1cccc(C(F)(F)F)c1)C(=O)N2CC [Compound I-240] | + (MS Emax % adduct formation greater than or equal to 0.0 and less than or equal to 30.0) |
| C=C(C(=O)O)c1nn(-c2ccccc2)c2c1[C@H](c1ccc(F)cc1)[C@@H](NC(=O)c1cccc(C(F)(F)F)c1)C(=O)N2CC (racemic) [Compound I-208, rac-2-((4R,5S)-7-ethyl-4-(4-fluorophenyl)-6-oxo-1-phenyl-5-(3-(trifluoromethyl)benzamido)-4,5,6,7-tetrahydro-1H-pyrazolo[3,4-b]pyridine-3-yl)acrylic acid] | + (MS Emax % adduct formation greater than or equal to 0.0 and less than or equal to 30.0) |
| CCN1C(=O)[C@@H](NC(=O)c2cccc(C(F)(F)F)c2)[C@@H](c2ccc(F)cc2)c2c([C@@H](C)NC(=O)/C=C/C(F)(F)F)nn(-c3ccccc3)c21 (mixture of isomers) [Compound I-164] | + (MS Emax % adduct formation greater than or equal to 0.0 and less than or equal to 30.0) |
| CCN1C(=O)[C@@H](NC(=O)c2cccc(C(F)(F)F)c2)[C@@H](c2ccc(F)cc2)c2c(CNC(=O)C(F)Cl)nn(-c3ccccc3)c21 (stereo in doubt) [Compound I-205] | + (MS Emax % adduct formation greater than or equal to 0.0 and less than or equal to 30.0) |
| C/C=C/C(=O)N(C)Cc1nn(-c2ccccc2)c2c1[C@H](c1ccc(F)cc1)[C@H](NC(=O)c1cccc(C(F)(F)F)c1)C(=O)N2CC (racemic) [Compound I-234] | + (MS Emax % adduct formation greater than or equal to 0.0 and less than or equal to 30.0) |
| CCN1C(=O)[C@@H](NC(=O)c2cccc(C(F)(F)F)c2)[C@@H](c2ccc(F)cc2)c2c(CN(C)C(=O)COc3c(F)c(F)cc(F)c3F)nn(-c3ccccc3)c21 (racemic) [Compound I-228] | + (MS Emax % adduct formation greater than or equal to 0.0 and less than or equal to 30.0) |
| CC#CC(=O)N[C@H](C)c1nn(-c2ccccc2)c2c1[C@H](c1ccc(F)cc1)[C@H](NC(=O)c1cccc(C(F)(F)F)c1)C(=O)N2CC (mixture of isomers) [Compound I-209] | + (MS Emax % adduct formation greater than or equal to 0.0 and less than or equal to 30.0) |
| C=C(C)C(=O)N[C@H](C)c1nn(-c2ccccc2)c2c1[C@H](c1ccc(F)cc1)[C@H](NC(=O)c1cccc(C(F)(F)F)c1)C(=O)N2CC (mixture of isomers) [Compound I-191] | + (MS Emax % adduct formation greater than or equal to 0.0 and less than or equal to 30.0) |
| CCN1C(=O)[C@@H](NC(=O)c2cccc(C(F)(F)F)c2)[C@@H](c2ccc(F)cc2)c2c(CN(C)C(=O)C3=CCCC3)nn(-c3ccccc3)c21 (racemic) [Compound I-233] | + (MS Emax % adduct formation greater than or equal to 0.0 and less than or equal to 30.0) |
| CCN1C(=O)[C@@H](NC(=O)c2cccc(C(F)(F)F)c2)[C@@H](c2ccc(F)cc2)c2c(NC(=O)COc3c(F)c(F)cc(F)c3F)nn(-c3ccccc3)c21 (racemic) [Compound I-176] | + (MS Emax % adduct formation greater than or equal to 0.0 and less than or equal to 30.0) |
| CCN1C(=O)[C@@H](NC(=O)c2cccc(C(F)(F)F)c2)[C@@H](c2ccc(F)cc2)c2c(CNC(=O)C(Cl)Cl)nn(-c3ccccc3)c21 (racemic) [Compound I-169] | + (MS Emax % adduct formation greater than or equal to 0.0 and less than or equal to 30.0) |
| CCN1C(=O)[C@@H](NC(=O)c2cccc(C(F)(F)F)c2)[C@@H](c2ccc(F)cc2)c2c([C@@H](C)NC(=O)C3=CCCC3)nn(-c3ccccc3)c21 (mixture of isomers) [Compound I-166] | + (MS Emax % adduct formation greater than or equal to 0.0 and less than or equal to 30.0) |
| CCN1C(=O)[C@@H](NC(=O)c2cccc(C(F)(F)F)c2)[C@@H](c2ccc(F)cc2)c2c(C(CCl)C(=O)N(C)C)nn(-c3ccccc3)c21 (mixture of isomers) [Compound I-216, rac-N-((4R,5R)-3-(3-chloro-1-(dimethylamino)-1-oxopropan-2-yl)-7-ethyl-4-(4-fluorophenyl)-6-oxo-1-phenyl-4,5,6,7-tetrahydro-1H-pyrazolo[3,4-b]pyridine-5-yl)-3-(trifluoromethyl)benzamide] | + (MS Emax % adduct formation greater than or equal to 0.0 and less than or equal to 30.0) |
| CCN1C(=O)[C@@H](NC(=O)c2cccc(C(F)(F)F)c2)[C@@H](c2ccc(F)cc2)c2c([C@H](C)NC(=O)C(C)Cl)nn(-c3ccccc3)c21 (mixture of isomers) [Compound I-211] | + (MS Emax % adduct formation greater than or equal to 0.0 and less than or equal to 30.0) |
| CCN1C(=O)[C@@H](NC(=O)c2cccc(C(F)(F)F)c2)[C@@H](c2ccc(F)cc2)c2c(C(=O)N(C)[C@H](C#N)CCN(C)C)nn(-c3ccccc3)c21 (relative stereo) [Compound I-303, (4S,5S)—N-[(1S*)-1-cyano-3-(dimethylamino)propyl]-7-ethyl-4-(4-fluorophenyl)-N-methyl-6-oxo-1-phenyl-5-[3-(trifluoromethyl)benzamido]-4H,5H-pyrazolo[3,4-b]pyridine-3-carboxamide] | ++ (MS Emax % adduct formation greater than 30.0 and less than or equal to 80.0) |
| CCN1C(=O)[C@@H](NC(=O)c2cccc(C(F)(F)F)c2)[C@@H](c2ccc(F)cc2)c2c(C=O)nn(-c3ccccc3)c21 (racemic) [Compound I-189, rac-N-((4R,5R)-7-ethyl-4-(4-fluorophenyl)-3-formyl-6-oxo-1-phenyl-4,5,6,7-tetrahydro-1H-pyrazolo[3,4-b]pyridine-5-yl)-3-(trifluoromethyl)benzamide] | + (MS Emax % adduct formation greater than or equal to 0.0 and less than or equal to 30.0) |
| CCN1C(=O)[C@@H](NC(=O)c2cccc(C(F)(F)F)c2)[C@@H](c2ccc(F)cc2)c2c(CN(C)C(=O)/C=C/C(F)(F)F)nn(-c3ccccc3)c21 (racemic) [Compound I-219] | + (MS Emax % adduct formation greater than or equal to 0.0 and less than or equal to 30.0) |
| CCN1C(=O)[C@H](NC(=O)c2cccc(C(F)(F)F)c2)[C@@H](c2ccc(F)cc2)c2c(C3CO3)nn(-c3ccccc3)c21 (relative stereo) [Compound I-207, N-((4RS,5SR)-7-ethyl-4-(4-fluorophenyl)-3-((S*)-oxiran-2-yl)-6-oxo-1-phenyl-4,5,6,7-tetrahydro-1H-pyrazolo[3,4-b]pyridine-5-yl)-3-(trifluoromethyl)benzamide] | + (MS Emax % adduct formation greater than or equal to 0.0 and less than or equal to 30.0) |
| CC#Cc1nn(-c2ccccc2)c2c1[C@H](c1ccc(F)cc1)[C@H](NC(=O)c1cccc(C(F)(F)F)c1)C(=O)N2CC (racemic) [Compound I-225, rac-N-((4R,5R)-7-ethyl-4-(4-fluorophenyl)-6-oxo-1-phenyl-3-(prop-1-yn-1-yl)-4,5,6,7-tetrahydro-1H-pyrazolo[3,4-b]pyridine-5-yl)-3-(trifluoromethyl)benzamide] | + (MS Emax % adduct formation greater than or equal to 0.0 and less than or equal to 30.0) |
| CCN1C(=O)[C@@H](NC(=O)c2cccc(C(F)(F)F)c2)[C@@H](c2ccc(F)cc2)c2c(CN(C)C(=O)C(F)Cl)nn(-c3ccccc3)c21 (some centres unmarked) [Compound I-145] | + (MS Emax % adduct formation greater than or equal to 0.0 and less than or equal to 30.0) |
